This note sets out measurements from ChEMBL document CHEMBL3045653, “A novel amino acid substitution Ala-122-Tyr in ALS confers high-level and broad resistance across ALS-inhibiting herbicides” (Pest Manag Sci, 2012).

The target of this test is T1, Acetolactate synthase (Raphanus raphanistrum, UniProt J7HAW4).
T1 sequence (J7HAW4 whole entry): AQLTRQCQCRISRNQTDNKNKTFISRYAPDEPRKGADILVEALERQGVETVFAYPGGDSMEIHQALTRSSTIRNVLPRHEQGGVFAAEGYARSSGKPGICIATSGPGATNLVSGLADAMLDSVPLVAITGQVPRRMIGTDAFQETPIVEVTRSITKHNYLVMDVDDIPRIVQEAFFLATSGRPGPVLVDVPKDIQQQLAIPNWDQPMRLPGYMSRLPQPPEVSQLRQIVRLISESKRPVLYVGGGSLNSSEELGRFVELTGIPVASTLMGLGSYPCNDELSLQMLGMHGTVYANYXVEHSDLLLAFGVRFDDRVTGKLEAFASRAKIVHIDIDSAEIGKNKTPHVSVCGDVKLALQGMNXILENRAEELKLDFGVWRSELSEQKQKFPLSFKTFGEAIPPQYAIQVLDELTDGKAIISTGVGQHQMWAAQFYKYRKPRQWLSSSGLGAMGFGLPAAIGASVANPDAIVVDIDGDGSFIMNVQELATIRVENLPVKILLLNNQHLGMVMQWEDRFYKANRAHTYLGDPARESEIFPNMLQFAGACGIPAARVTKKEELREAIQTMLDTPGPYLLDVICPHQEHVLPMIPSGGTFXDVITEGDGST
The test is described as follows: Inhibition of ALS in ALS-herbicide-susceptible Raphanus raphanistrum […] (wild radish). To be noted: pooled result: one value given for 2 cell lines, strains, targets or settings; read-out: I50.

In the case of `Cc1cc(C)nc(NC(=O)NS(=O)(=O)c2ccccc2C(=O)O)n1` [SULFOMETURON], the IC50 was 23 nM.
